Laboratory results reported in the NIST ThermoML archive (doi:10.1021/je400917j).
± gives the expanded uncertainty stated by the source.

Assay: xn = mol fraction of the nth substance listed
Settings: 101 kPa, Liquid; for mass density: Vibrating tube method

CCCCC(C)O (stereo not drawn) [2-hexanol] + CC(=O)N(C)C
Settings | mass density, 298.15 K [kg/m3] | mass density, 303.15 K [kg/m3] | mass density, 308.15 K [kg/m3] | mass density, 313.15 K [kg/m3] | viscosity, 298.15 K [mPa·s] | viscosity, 303.15 K [mPa·s] | viscosity, 308.15 K [mPa·s] | viscosity, 313.15 K [mPa·s]
x2 = 0 | 810.1 ± 0.2 | 806.1 ± 0.2 | 802.1 ± 0.2 | 798 ± 0.2 | 4.1 ± 0.15 | 3.41 ± 0.12 | 2.82 ± 0.1 | 2.22 ± 0.083
x2 = 0.0817 | 816.9 ± 0.2 | 812.8 ± 0.2 | 808.6 ± 0.2 | 804.3 ± 0.2 | 3.46 ± 0.13 | 2.89 ± 0.11 | 2.42 ± 0.09 | 1.8 ± 0.068
x2 = 0.1606 | 824 ± 0.2 | 819.7 ± 0.2 | 815.4 ± 0.2 | 810.9 ± 0.2 | 2.87 ± 0.11 | 2.41 ± 0.09 | 2.05 ± 0.077 | 1.52 ± 0.058
x2 = 0.2405 | 831.5 ± 0.2 | 827.1 ± 0.2 | 822.7 ± 0.2 | 818.1 ± 0.2 | 2.35 ± 0.088 | 2 ± 0.075 | 1.76 ± 0.067 | 1.33 ± 0.051
x2 = 0.3506 | 842.9 ± 0.2 | 838.3 ± 0.2 | 833.8 ± 0.2 | 829 ± 0.2 | 1.82 ± 0.069 | 1.58 ± 0.06 | 1.44 ± 0.055 | 1.15 ± 0.045
x2 = 0.4404 | 852.9 ± 0.2 | 848.2 ± 0.2 | 843.6 ± 0.2 | 838.8 ± 0.2 | 1.54 ± 0.059 | 1.35 ± 0.052 | 1.25 ± 0.049 | 1.04 ± 0.041
x2 = 0.5601 | 867.5 ± 0.2 | 862.8 ± 0.2 | 858.1 ± 0.2 | 853.3 ± 0.2 | 1.29 ± 0.05 | 1.16 ± 0.045 | 1.06 ± 0.042 | 0.92 ± 0.037
x2 = 0.6505 | 879.6 ± 0.2 | 874.8 ± 0.2 | 870.1 ± 0.2 | 865.4 ± 0.2 | 1.14 ± 0.045 | 1.03 ± 0.041 | 0.94 ± 0.037 | 0.85 ± 0.034
x2 = 0.7405 | 892.6 ± 0.2 | 887.8 ± 0.2 | 883.2 ± 0.2 | 878.4 ± 0.2 | 1.03 ± 0.041 | 0.95 ± 0.038 | 0.87 ± 0.035 | 0.8 ± 0.032
x2 = 0.8504 | 909.9 ± 0.2 | 905.2 ± 0.2 | 900.7 ± 0.2 | 896.2 ± 0.2 | 0.97 ± 0.038 | 0.9 ± 0.036 | 0.82 ± 0.033 | 0.77 ± 0.031
x2 = 0.9405 | 925.4 ± 0.2 | 920.8 ± 0.2 | 916.5 ± 0.2 | 912.2 ± 0.2 | 0.95 ± 0.038 | 0.882 ± 0.035 | 0.81 ± 0.033 | 0.756 ± 0.031
